Test results published in patent publication EP0918774B9, “ANDROGEN RECEPTOR MODULATOR COMPOUNDS AND METHODS” (LIGAND PHARMACEUTICALS INCORPORATED, priority 1996, dated 1997).

Target: T1, PR (Homo sapiens, UniProt P06401)
T1 sequence (P06401 1-933): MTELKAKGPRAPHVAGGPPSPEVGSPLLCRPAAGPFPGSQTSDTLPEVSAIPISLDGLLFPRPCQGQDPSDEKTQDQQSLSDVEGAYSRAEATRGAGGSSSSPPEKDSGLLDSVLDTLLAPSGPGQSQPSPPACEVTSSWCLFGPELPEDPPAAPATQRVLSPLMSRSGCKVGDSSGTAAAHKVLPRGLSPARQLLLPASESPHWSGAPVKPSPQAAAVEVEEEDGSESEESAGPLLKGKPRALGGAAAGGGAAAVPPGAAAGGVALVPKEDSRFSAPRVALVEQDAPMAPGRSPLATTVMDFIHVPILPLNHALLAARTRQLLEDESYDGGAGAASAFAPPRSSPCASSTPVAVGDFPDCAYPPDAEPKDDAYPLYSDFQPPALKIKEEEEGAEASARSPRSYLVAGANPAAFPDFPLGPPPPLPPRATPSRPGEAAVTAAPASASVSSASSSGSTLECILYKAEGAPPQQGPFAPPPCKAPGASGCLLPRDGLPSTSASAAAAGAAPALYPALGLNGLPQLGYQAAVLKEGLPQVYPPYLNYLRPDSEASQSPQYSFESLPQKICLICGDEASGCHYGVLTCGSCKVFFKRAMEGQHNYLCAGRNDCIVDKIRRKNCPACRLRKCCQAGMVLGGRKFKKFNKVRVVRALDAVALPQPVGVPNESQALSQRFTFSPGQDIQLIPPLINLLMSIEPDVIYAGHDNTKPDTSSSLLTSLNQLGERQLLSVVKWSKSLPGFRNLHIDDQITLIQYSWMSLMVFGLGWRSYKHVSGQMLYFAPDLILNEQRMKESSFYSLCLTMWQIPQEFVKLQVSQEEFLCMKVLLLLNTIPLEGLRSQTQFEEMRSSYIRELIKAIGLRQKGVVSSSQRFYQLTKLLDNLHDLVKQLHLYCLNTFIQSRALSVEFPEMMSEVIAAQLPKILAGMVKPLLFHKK
Test: cell-based

For CC12CCCN1c1cc3nc(O)cc(C(F)(F)F)c3cc1CC2 (racemic) [Compound 101, (R/S)-6,7,7a,11-Tetrahydro-7a-methyl-4-trifluoromethyl-2-pyridono[5,6-g]pyrrolidino[1,2-a]quinoline], the IC50 was > 10 µM.
